Experimental data as given in patent US7071231B2, “Naphthalene ureas as glucose uptake enhancers” (Telik, Inc., priority 1999, dated 2006).

How the values were obtained:
human insulin receptor = target: T1, human insulin receptor (Homo sapiens, UniProt P06213); test: Whole-cell phosphorylation assay (3T3HIR cells); assay type: cell-based; conditions: 15 min, anti-phosphotyrosine Western, various concentrations (FIG. 2)
T1 construct: expressed in transfected cells; host or cells: NIH 3T3 (3T3HIR)
T1 sequence (P06213 763-1382 limits assumed): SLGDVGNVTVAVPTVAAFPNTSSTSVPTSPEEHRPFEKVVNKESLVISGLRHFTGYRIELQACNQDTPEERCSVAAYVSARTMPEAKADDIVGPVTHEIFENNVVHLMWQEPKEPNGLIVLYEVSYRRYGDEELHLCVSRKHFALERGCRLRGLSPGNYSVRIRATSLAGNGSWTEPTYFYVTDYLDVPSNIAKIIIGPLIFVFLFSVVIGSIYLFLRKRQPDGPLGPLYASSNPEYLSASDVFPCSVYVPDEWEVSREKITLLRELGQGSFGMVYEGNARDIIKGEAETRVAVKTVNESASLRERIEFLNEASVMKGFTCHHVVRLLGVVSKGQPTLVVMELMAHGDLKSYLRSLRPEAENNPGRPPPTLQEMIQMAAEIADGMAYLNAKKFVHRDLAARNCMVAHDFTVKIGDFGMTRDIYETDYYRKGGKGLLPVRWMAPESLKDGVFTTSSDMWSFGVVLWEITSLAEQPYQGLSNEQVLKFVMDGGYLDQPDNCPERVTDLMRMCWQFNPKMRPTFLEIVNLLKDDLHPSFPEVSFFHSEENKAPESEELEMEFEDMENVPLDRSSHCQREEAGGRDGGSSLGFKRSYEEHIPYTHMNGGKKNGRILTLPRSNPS
T1 sequence (P06213 28-758 partner limits assumed): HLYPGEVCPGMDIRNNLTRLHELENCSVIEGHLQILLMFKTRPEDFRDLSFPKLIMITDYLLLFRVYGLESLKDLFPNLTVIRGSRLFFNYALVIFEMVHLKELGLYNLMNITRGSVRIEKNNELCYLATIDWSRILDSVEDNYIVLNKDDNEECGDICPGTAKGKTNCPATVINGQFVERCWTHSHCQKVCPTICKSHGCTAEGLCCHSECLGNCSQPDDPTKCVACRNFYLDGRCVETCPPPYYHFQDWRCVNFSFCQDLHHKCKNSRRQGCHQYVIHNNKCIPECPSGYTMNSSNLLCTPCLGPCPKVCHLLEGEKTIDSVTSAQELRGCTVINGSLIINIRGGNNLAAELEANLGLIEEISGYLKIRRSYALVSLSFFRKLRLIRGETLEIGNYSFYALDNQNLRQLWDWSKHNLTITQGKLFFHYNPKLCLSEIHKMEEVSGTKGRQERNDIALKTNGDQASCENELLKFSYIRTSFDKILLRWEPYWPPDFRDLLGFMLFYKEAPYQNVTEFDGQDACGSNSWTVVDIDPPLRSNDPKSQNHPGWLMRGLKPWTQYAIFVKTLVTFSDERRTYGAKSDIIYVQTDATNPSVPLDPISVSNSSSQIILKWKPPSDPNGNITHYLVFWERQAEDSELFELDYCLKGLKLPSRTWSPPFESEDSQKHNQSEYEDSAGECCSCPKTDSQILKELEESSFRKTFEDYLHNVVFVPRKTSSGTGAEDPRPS
Protocol: Whole-cell Phosphorylation Assay:
The initial step in insulin signaling is phosphorylation of the insulin receptor in response to insulin binding. NIH 3T3 cells overexpressing human insulin receptor (3T3HIR) were grown for 2 days at a density of 2×10^5/ml cells in 6 well culture dishes in DMEM with 10% FBS and L-glutamine. Prior to the experiment the cells were serum-starved overnight with DMEM with 0.1% BSA. The following morning, the cells were washed with PBS and the medium was replaced with 150 mM NaCl, 1.7 mM KCl, 0.9 mM CaCl2, K2HPO4 (pH 7.4), to which were added either the experimental compounds, or their vehicle (DMSO). Insulin or its vehicle (0.01% BSA) was diluted in the assay buffer (containing test compound or vehicle, respectively) to a final concentration of 2.5 nM. After incubating for 15 min, the cells were washed with cold PBS twice and lysed in 50 mM Tris.HCl, pH 7.4 150 mM NaCl, 0.25% sodium deoxycholate, 1% NP-40, 1 mM EGTA, 1 mM PMSF, 1 mM Na3VO4, 1 mM NaF, 1 ug/ml each of Aprotinin, Leupeptin and Pepstatin. The cell lysates were clarified by centrifugation at 12000 rpm, and the supernatants were estimated for protein concentration. Total cell lysate ([…]) was boiled with 2× SDS-PAGE sample buffer for 3 min and loaded into 7.5% SDS-PAGE along with Amersham rainbow marker protein as a molecular weight standard. […]

[1] = system: platelet-derived growth factor (PDGF) receptor; test: Selectivity: PDGF receptor phosphorylation; assay type: cell-based; conditions: in the absence or presence of PDGF
ob/ob mouse = test: Blood glucose, insulin and triglycerides in the ob/ob mouse model of Type 2 diabetes; assay type: in vivo; conditions: ob/ob mice, single dose 30 mg/kg, p.o.
Protocol: Lowering of Blood Glucose, Insulin and Triglycerides in the ob/ob Mouse Model of Type 2 Diabetes Another standard model of Type 2 diabetes is the ob/ob mouse. Male ob/ob mice (C57 BL/6J-ob) were housed 3–5 to a cage with free access to standard rodent chow pellets. After one week, they were given a single dose of Compound 15 (30 mg/kg, p.o.). Compound 15 produced a 13% decrease in blood glucose levels, a 42% decrease in plasma insulin levels, and a 15% decrease in plasma triglyceride levels. The concomitant reduction of plasma glucose and insulin levels are consistent with a reduction in insulin resistance.

STZ/HFD rats = test: Multi-dosing in STZ/HFD rats; assay type: in vivo, rat; conditions: 30 mg/kg oral daily, 3 days (FIG. 14)
Protocol: Multi-Dosing in STZ/HFD Rats
STZ/HFD rats were prepared as in example 19. Compound 15 or an equivalent amount of the vehicle (PBS) was administered daily by the oral route at a dose of 30 mg/kg. Blood samples were taken by an IACUC-approved protocol (tail cap method) immediately before each dose and 4 and 6 (day one only) hours later. Blood glucose levels were measured using a Glucometer Elite (Bayer, Elkhart, Ind.). The blood glucose levels of the vehicle-treated group fell over the course of the experiment as the animals recovered from the low dose of STZ (FIG. 14).

male CD rats = test: Acute toxicity in CD rats; assay type: in vivo; conditions: p.o., 300 mg/kg in PBS
Protocol: Compound 15 was administered in PBS vehicle to male db/db mice (i.p.) and male CD rats (p.o.) at 300 mg/kg, which is approximately 10 times its effective dose.

CYP1A2 = CYP1A2 (Homo sapiens, UniProt P05177); test: P450 interactions: CYP1A2 inhibition; assay type: in vitro ADME; conditions: human cytochromes P450
Sequence of CYP1A2 (P05177 whole entry): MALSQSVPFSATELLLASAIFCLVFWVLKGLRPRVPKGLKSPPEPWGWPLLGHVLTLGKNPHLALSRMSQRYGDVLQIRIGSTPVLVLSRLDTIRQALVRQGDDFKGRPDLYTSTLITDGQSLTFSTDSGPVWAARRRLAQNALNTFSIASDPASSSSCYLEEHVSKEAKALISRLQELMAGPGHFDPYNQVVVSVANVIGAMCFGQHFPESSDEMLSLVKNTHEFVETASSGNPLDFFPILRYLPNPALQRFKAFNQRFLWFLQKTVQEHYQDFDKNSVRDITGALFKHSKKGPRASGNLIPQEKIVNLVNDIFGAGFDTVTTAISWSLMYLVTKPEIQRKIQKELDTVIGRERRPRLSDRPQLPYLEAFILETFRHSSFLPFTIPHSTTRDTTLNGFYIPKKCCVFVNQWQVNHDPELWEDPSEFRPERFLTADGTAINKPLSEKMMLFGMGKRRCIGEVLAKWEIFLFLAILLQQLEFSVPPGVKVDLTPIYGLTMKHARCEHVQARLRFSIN
From the text: (§1) A major pathway for elimination of drugs from the body, which may limit their effectiveness, is the cytochrome P450 system of the liver.

CYP2C9 = CYP2C9 (Homo sapiens, UniProt P11712); test: P450 interactions: CYP2C9 inhibition; assay type: in vitro ADME; conditions: human cytochromes P450
Sequence of CYP2C9 (P11712 whole entry): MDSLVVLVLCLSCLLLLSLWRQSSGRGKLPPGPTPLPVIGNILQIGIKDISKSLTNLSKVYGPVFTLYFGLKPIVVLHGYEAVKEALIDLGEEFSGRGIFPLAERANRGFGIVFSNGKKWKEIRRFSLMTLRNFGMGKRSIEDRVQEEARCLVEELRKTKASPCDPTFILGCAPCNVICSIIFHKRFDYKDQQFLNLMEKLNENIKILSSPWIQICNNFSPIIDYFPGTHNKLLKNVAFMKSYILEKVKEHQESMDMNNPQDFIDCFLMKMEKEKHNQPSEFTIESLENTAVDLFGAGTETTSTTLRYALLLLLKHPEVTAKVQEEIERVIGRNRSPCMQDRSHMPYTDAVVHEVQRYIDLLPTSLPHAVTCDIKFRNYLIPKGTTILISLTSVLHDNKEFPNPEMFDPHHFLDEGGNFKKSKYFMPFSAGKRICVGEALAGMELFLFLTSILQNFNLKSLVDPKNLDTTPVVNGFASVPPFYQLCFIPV
From the text: as §1

CYP2D6 = CYP2D6 (Homo sapiens, UniProt P10635); test: P450 interactions: CYP2D6 inhibition; assay type: in vitro ADME; conditions: human cytochromes P450
Sequence of CYP2D6 (P10635 whole entry): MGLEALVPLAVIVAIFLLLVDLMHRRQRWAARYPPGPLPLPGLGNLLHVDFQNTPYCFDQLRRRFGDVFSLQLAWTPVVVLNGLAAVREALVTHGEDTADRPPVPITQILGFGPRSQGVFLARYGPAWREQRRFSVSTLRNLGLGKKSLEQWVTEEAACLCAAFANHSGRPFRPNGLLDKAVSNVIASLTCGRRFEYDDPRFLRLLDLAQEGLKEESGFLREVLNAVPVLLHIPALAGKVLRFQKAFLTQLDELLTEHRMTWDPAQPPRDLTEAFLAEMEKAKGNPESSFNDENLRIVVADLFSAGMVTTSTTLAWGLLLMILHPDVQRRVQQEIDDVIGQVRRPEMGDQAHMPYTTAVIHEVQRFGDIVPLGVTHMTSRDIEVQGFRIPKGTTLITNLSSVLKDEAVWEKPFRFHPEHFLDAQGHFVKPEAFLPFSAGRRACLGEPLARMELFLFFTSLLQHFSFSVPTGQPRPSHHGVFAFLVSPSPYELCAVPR
From the text: as §1

CYP3A4 = CYP3A4 (Homo sapiens, UniProt P08684); test: P450 interactions: CYP3A4 inhibition; assay type: in vitro ADME; conditions: human cytochromes P450
Sequence of CYP3A4 (P08684 whole entry): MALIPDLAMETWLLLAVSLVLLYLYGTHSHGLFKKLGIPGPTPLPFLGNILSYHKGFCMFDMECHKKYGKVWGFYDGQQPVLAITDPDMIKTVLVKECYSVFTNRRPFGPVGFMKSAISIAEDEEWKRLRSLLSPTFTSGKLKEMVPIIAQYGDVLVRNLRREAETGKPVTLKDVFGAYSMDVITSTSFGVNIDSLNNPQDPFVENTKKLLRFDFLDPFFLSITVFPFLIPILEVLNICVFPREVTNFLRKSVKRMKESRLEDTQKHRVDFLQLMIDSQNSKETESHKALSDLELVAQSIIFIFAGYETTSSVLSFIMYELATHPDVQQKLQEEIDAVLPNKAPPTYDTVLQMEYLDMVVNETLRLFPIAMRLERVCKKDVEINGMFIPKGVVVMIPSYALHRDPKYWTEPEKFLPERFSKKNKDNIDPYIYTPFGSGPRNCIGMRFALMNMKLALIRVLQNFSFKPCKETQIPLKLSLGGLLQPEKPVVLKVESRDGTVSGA
From the text: as §1

[2] = Distribution of compound-[14C]-15 after oral administration; assay type: in vivo, rat; conditions: STZ/HFD rats, single oral dose 30 mg/kg 14C-labeled, two hours later
Protocol: Distribution of Compound-[14C]-15 After Oral Administration
STZ/HFD rats, prepared as in Example 19, were given a single oral dose of 30 mg/kg compound-[14C]-15 labeled with 50 μCi of 14C prepared as in Example 11A. Two hours later the animals were euthanized and 200 mg samples of various tissues were removed by an IACUC-approved protocol. The tissue samples were homogenized and their radioactivity content was measured by scintillation counting. The highest levels of radioactivity were found in the pancreas, liver, and thigh muscle. These corresponded to Compound 15 concentrations of approximately 780 nM, 200 nM, and 175 nM, respectively. These concentrations would be sufficient to produce insulin receptor phosphorylation in vitro. Lower levels of radioactivity indicative of 50 nM to 100 nM concentrations of the compound were found in abdominal muscle, fat, kidney, and spleen.

With `O=C(Nc1ccc2c(O)cc(S(=O)(=O)Nc3cccc(S(=O)(=O)O)c3)cc2c1)Nc1ccc2c(O)cc(S(=O)(=O)Nc3cccc(S(=O)(=O)O)c3)cc2c1` [Compound 15, 3-{[(4-hydroxy-7-{[N-(5-hydroxy-7-{[(3-sulfophenyl)amino]sulfonyl}(2-naphthyl))carbamoyl]amino}-2-naphthyl)sulfonyl]amino}benzenesulfonic acid] the “autophosphorylation of the insulin receptor in whole cells” value (human insulin receptor) was “increase of autophosphorylation”, the “phosphorylation of the PDGF receptor” value [1] was “not to increase the phosphorylation” and the “decrease in blood glucose levels” value (ob/ob mouse) was 13%. For the same compound, the “decrease in plasma insulin levels” value (ob/ob mouse) was 42%, the “decrease in plasma triglyceride levels” value (ob/ob mouse) was 15% and the “blood glucose levels versus vehicle-treated group” value (STZ/HFD rats) was “lowered blood glucose levels below those of the vehicle-treated group by 6 hours after administration”. The acute toxicity (male CD rats) was “No acute toxicity was seen”, the “inhibition of catalytic activity of CYP1A2” value (CYP1A2) was “did not inhibit” and the “inhibition of catalytic activity of CYP2C9” value (CYP2C9) was “did not inhibit”. The “inhibition of catalytic activity of CYP2D6” value (CYP2D6) was “did not inhibit”, the “inhibition of catalytic activity of CYP3A4” value (CYP3A4) was “did not inhibit” and the “amount of radioactivity in the blood” value [2] was “not above background levels”. For the same compound, the “tissue concentration, liver” value [2] was about 200 nM, the “tissue concentration, pancreas” value [2] was “approximately 780 nM” and the “tissue concentration, thigh muscle” value [2] was about 175 nM.
